Entries after “also recorded” stand apart in the source; their conditions may differ.
Tests used:
Test in all cases: Automodification reaction, ADP-ribose Western blot / in-gel fluorescence after click to azido-rhodamine
Assay type in all cases: biochemical
Conditions in all cases: FIG. 5I
asPARP-2 (L443A) = target: T1, asPARP-2 (L443A) (Homo sapiens, UniProt Q9UGN5, L443A)
T1 construct: made in house; host or cells: Sf9 insect cells (baculovirus)
Description: (§1) In vitro automodification reactions. 200 ng PARP Protein was incubated in Automodification Buffer (30 mM HEPES, pH 8.0, 5 mM MgCl2, 5 mM CaCl2, 0.01% NP-40, 1 mM DTT, 100 ng/mL sonicated salmon sperm DNA (Stratagene), 100 ng/mL BSA (SIGMA)) with NAD^+ or NAD^+ analogs as indicated at 25° C. for 5 (PARP-1 and PARP2) or 30 minutes (PARP3) for Sf9-purified proteins and for 45 minutes for bacterially purified enzymes.
(§2) Reactions were stopped by addition of ⅓ reaction volume with 4×SDS-PAGE Loading Buffer (200 mM Tris, pH 6.8, 8% SDS, 40% Glycerol, 4% β-mercaptoethanol, 50 mM EDTA, 0.08% Bromophenol Blue) followed by boiling at 100° C. for 5 minutes. Reaction products in 1×SDS-PAGE buffer were then resolved on a 10% SDS-PAGE gel, transferred to a nitrocellulose membrane and blotted with a polyclonal antibody against PARP-1 or with an antibody-like detection reagent against ADP-ribose (MABE1016, Millipore). Relative quantitation of PARP-1 automodifications was performed by the ratio of PARylation-induced […] in SDS-PAGE mobility relative to un-shifted full length PARP-1 measured by densitometry of anti-PARP-1 western blots.
(§3) Reactions were stopped by methanol:chloroform precipitation (Wessel and Flugge, 1984). The protein pellets were clicked to azido-Rhodamine (Click Chemistry Tools) in Denaturing CC Buffer (100 mM HEPES, pH 8, 4 M Urea, 0.5 M NaCl, 2% CHAPS, 10 μM azido-Rhodamine, 1 mM THPTA (Click Chemistry Tools), 5 mM CuSO4, 5 mM Sodium Ascorbate) with Azido-Rhodamine, THPTA:CuSO4 complex, and Sodium Ascorbate each added sequentially in written order. […]
(§4) The automodification reactions were stopped by the addition of one third of a reaction volume of 4×SDS-PAGE Loading Buffer (200 mM Tris.HCl, pH 6.8, 8% SDS, 40% glycerol, 4% 3-mercaptoethanol, 50 mM EDTA, 0.08% bromophenol blue) followed by heating to 100° C. for 5 min. […] Relative quantification of PARP-1 automodification was performed using densitometry and was expressed as the ratio of the PARylation-induced decrease in PARP-1 mobility relative to non-shifted PARP-1. […]

asPARP-3 (L394A) = target: T2, asPARP-3 (L394A) (Mus musculus, UniProt Q3ULW8, L399A)
T2 construct: made in house; host or cells: Sf9 insect cells (baculovirus)
T2 sequence (Q3ULW8 1-528 isoform Q3ULW8-2 L394A): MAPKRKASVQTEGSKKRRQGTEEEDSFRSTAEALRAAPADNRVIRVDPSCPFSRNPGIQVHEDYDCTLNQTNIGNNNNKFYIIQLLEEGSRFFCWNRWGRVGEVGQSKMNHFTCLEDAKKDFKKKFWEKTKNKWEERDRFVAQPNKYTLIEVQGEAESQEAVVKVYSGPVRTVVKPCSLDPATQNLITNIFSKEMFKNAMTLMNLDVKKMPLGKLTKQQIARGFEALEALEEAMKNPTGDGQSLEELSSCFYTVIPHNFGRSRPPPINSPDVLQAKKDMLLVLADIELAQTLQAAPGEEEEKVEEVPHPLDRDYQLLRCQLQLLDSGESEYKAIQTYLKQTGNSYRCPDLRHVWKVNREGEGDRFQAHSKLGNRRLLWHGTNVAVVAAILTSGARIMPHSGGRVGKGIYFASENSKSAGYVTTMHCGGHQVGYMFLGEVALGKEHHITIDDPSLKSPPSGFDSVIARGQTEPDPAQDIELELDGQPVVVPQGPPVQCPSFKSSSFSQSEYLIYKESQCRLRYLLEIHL
Description: as §1, §2, §3, §4

asPARP-1 (PARP-1 L877A) = target: T3, asPARP-1 (PARP-1 L877A) (Mus musculus, UniProt P11103, L876A)
T3 construct: relative to un-shifted full length PARP-1 measured by densitometry of anti-PARP-1 western blots; made in house; host or cells: Sf9 insect cells (baculovirus)
T3 sequence (P11103 whole entry L876A): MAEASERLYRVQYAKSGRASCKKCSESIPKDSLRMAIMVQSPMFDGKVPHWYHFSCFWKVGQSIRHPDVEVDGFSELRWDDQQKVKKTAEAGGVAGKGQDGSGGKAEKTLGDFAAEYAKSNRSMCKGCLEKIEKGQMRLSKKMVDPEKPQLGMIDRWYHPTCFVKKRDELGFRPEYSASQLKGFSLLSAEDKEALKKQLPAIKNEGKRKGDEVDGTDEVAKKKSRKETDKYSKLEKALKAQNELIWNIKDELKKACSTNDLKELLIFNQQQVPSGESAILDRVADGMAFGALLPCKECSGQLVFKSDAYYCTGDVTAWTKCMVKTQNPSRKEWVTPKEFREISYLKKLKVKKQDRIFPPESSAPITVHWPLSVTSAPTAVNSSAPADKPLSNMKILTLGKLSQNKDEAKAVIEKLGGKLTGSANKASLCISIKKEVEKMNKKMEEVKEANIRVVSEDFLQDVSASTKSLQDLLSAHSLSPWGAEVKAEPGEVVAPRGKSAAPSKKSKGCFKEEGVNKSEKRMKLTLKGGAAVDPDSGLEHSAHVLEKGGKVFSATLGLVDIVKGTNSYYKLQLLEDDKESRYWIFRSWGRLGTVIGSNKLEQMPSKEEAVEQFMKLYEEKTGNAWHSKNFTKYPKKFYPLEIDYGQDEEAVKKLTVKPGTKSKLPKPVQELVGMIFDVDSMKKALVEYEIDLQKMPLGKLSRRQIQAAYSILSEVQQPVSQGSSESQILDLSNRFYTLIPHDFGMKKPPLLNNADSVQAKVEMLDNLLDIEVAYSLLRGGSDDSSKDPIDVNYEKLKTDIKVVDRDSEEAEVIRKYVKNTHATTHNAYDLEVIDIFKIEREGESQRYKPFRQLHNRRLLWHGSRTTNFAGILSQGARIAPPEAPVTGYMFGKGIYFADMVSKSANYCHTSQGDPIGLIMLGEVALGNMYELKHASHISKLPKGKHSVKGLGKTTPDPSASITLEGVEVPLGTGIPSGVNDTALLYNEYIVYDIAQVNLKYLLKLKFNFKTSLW
Description: as §1, §2, §3, §4

T1 sequence (Q9UGN5 whole entry L443A): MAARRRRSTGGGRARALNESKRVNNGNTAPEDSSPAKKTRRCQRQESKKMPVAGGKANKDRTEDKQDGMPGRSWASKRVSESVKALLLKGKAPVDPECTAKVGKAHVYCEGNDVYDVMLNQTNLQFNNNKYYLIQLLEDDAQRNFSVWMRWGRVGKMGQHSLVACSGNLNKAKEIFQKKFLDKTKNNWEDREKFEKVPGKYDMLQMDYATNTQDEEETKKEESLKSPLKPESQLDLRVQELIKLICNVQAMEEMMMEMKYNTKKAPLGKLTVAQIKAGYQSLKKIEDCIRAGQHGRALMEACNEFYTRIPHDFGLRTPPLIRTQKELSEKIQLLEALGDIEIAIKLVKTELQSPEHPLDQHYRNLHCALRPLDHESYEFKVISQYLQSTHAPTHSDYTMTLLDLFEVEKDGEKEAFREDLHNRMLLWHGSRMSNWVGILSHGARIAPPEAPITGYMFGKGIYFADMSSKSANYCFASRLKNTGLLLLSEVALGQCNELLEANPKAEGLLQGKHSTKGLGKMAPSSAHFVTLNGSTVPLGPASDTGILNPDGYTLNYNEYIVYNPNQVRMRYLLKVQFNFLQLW

C#CCCSc1nc2c(N)ncnc2n1[C@@H]1O[C@H](COP(=O)(O)OP(=O)(O)OC[C@H]2O[C@@H]([n+]3cccc(C(N)=O)c3)C(O)C2O)[C@H](O)C1O (stereo partly drawn) [8-Bu(3-yne)T-NAD^+]
catalytic activity of asPARP-2 with the NAD analog (asPARP-2 (L443A)): catalytically active; also recorded: supports activity | catalytic activity of asPARP-3 with the NAD analog (asPARP-3 (L394A)): catalytically active; also recorded: supports activity | catalytic activity of asPARP-1 with the NAD analog (asPARP-1 (PARP-1 L877A)): catalytically active

From patent US9926340B2, “NAD analogs and methods of using said NAD analogs in determining ribosylation of proteins with PARP mutants” (The Board of Regents of the University of Texas System, priority 2015, dated 2018)
